1 molecule from EP4628084A1, “NAPHTHALENE-DERIVATIVE-BASED THERAPEUTIC DRUG FOR OPHTHA[…]” (Kyoto University, priority 2022, dated 2024) can be followed below.

What is called solubility is the dissolved amount per volume that the medium holds. Higher therefore signals a readily soluble substance.

Assay type in all cases: physicochemical
Data set [1] in a line: Preliminary experiment: soluble concentration of KUS121 in normal PBS buffer. The method, then:
The maximum dose of KUS121 to the vitreous body of the eye is 50 µg/eye, and the liquid volume that can be administered into the vitreous body is preferably about 100 µL or less. […] In view of these premises and the above-mentioned problems, the present inventors have extensively studied to design an injection formulation of KUS121 in a normal PBS buffer that can be administered into the vitreous body, wherein about 50 µg of KUS121 is dissolved in a normal PBS buffer (about 100 µL), i.e., a formulation that allows a concentration setting of 0.5 mg/mL and matches the osmotic pressure in the vitreous body. As a result, the present inventors have conducted the following trials and then have found the following things: i.e., the present inventors first prepared 1 mL of 0.1 mg/mL KUS121 aqueous solution by dissolving KUS121 in water for injection and then adding a PBS buffer solution with about twice the concentration of normal to the KUS121 solution, in which the PBS concentration is 1/5 of the normal concentration. Then, the prepared KUS121 aqueous solution was lyophilized, and 200 µL (0.2 mL) of water for injection [200 µL (0.2 mL) corresponds to 1/5 the volume before the lyophilization] was added to the lyophilized product. […]

Data set [2] is described as follows: Solubility of KUS121 in water. The note with it: at 25°C.
The nature of data set [3]: Solubility of KUS121 in PBS buffer at different temperatures (filtrate quantified by HPLC). The note with it: for solubility of KUS121: detection limit about 1 µg/mL, quantification limit 5 µg/mL; for solubility: PBS buffer solution, aqueous buffer, thermodynamic from solid. The method, then: A PBS buffer solution comprising 1.6 mg of sodium chloride, 0.229 mg of disodium hydrogen phosphate, 0.04 mg of potassium dihydrogen phosphate, and 0.04 mg of potassium chloride per mL of the solution was prepared, and the temperature of the PBS buffer solution was adjusted to 5°C, 25°C, 40°C, 50°C, and 60°C. KUS121 was added little by little to each solution at the different temperatures and stirred. After stirring for a sufficient time period from the time when some undissolved material appeared, the solution was filtered. As a result of quantifying the filtrate using HPLC, the solubility of KUS121 at each temperature was as follows (detection limit: about 1 µg/mL, quantification limit: 5 µg/mL) .

Regarding `Cc1cc(F)ccc1-c1ccc(N=Nc2cc(S(=O)(=O)[O-])c3ccccc3c2N)cn1.O.O.[Na+]` [KUS121, Sodium 4-amino-3-[6-(4-fluoro-2-methylphenyl)pyridin-3-ylazo]naphthalene-1-sulfonate dihydrate], the “solubility of KUS121 in PBS buffer” value in data set [1] (PBS buffer, result in words) is reported as “extremely low”. The solubility in data set [1] (normal PBS buffer solution, aqueous buffer, normal PBS buffer, room temperature, preliminary experiment) is at most 10 µg/mL; in data set [2], about 2800 µg/mL; in data set [3] (40°C), 7 µg/mL; in data set [3] (50°C), 47 µg/mL; in data set [3] (60°C), 132 µg/mL. Also, the “solubility of KUS121” value in data set [3] (5°C) and in data set [3] (25°C) was “below detection limit” throughout.
